# Experimental data taken from ChEMBL document CHEMBL1800060, “Enhancement of transcriptional activity of mutant p53 tumor suppressor protein through stabilization of tetramer formation by calix[6]arene derivatives” (Bioorg Med Chem Lett, 2010).
# Activity calls are given as the source filed them. The calls are words filed in the database; no cut-off is given here.
# Tests used:
# [1] = tested on: Cellular tumor antigen p53 (Homo sapiens), P04637 [R337H]; assay: Thermal stabilization of p53 tetramerization domain-Arg337His mutant peptide assessed as change in transition temperature at 10 uM by CD spectroscopy
# [2] = tested on: Cellular tumor antigen p53 (Homo sapiens), P04637 [R337H]; assay: Enhancement of transcriptional activity of EGFP tagged p53 tetramerization domain-Arg337His mutant peptide in NCI-H1299 cells transfected with p53RE-mCherry(NLS) reporter plasmid assessed as increase in fluorescence signal at 20 uM after 11 hrs by fluorescence assay; format: cell-based
# [3] = tested on: Cellular tumor antigen p53 (Homo sapiens), P04637 [R337H]; assay: Thermal stabilization of p53 tetramerization domain-Arg337His mutant peptide assessed as change in transition temperature at 40 uM by CD spectroscopy
# [4] = tested on: Cellular tumor antigen p53 (Homo sapiens), P04637 [R273H]; assay: Enhancement of transcriptional activity of p53 DNA binding domain Arg273His mutant in NCI-H1299 cells transfected p53RE-mCherry(NLS) reporter plasmid assessed as increase in fluorescence signal at 20 uM after 11 hrs by fluorescence assay; format: cell-based
# [5] = tested on: Cellular tumor antigen p53 (Homo sapiens), P04637 [R337H]; assay: Enhancement of transcriptional activity of EGFP tagged p53 tetramerization domain-Arg337His mutant peptide in NCI-H1299 cells transfected with p53RE-mCherry(NLS) reporter plasmid assessed as increase in fluorescence signal at 20 uM after 11 hrs by fluorescence assay relative to untreated control; format: cell-based
# [6] = molecular target: Cellular tumor antigen p53 (Homo sapiens) (UniProt P04637); assay: Enhancement of transcriptional activity of wild type p53 in NCI-H1299 cells transfectedp53RE-mCherry(NLS) reporter plasmid assessed as increase in fluorescence signal at 20 uM after 11 hrs by fluorescence assay; format: cell-based
Compound,deltaT [1] [°C],Activity [2],deltaT [3] [°C],Activity [4],Activity [5] [%],Activity [6]
COc1c2cc(Cn3cccn3)cc1Cc1cc(Cn3cccn3)cc(c1OC)Cc1cc(Cn3cccn3)cc(c1OC)Cc1cc(Cn3cccn3)cc(c1OC)Cc1cc(Cn3cccn3)cc(c1OC)Cc1cc(Cn3cccn3)cc(c1OC)C2,0,–,–,–,–,–
N=C(N)NCc1cc2c3c(c1)Cc1cc(CNC(=N)N)cc4c1OCCOCCOc1c(cc(CNC(=N)N)cc1Cc1cc(CNC(=N)N)cc(c1OCCOCCO3)C2)C4,0.3,inactive,-0.3,–,–,–
COc1c2cc(Cn3ccnc3)cc1Cc1cc(Cn3ccnc3)cc(c1OC)Cc1cc(Cn3ccnc3)cc(c1OC)Cc1cc(Cn3ccnc3)cc(c1OC)Cc1cc(Cn3ccnc3)cc(c1OC)Cc1cc(Cn3ccnc3)cc(c1OC)C2,2.3,Active,4.1,inactive,130,Active
